Measured values taken from patent US10946017B2, “Tank-binding kinase-1 PROTACs and associated methods of use” (Arvinas Operations, Inc., priority 2015, dated 2021).

Molecular target: TBK1 (Homo sapiens (Human), UniProt Q9UHD2)
Assay: In vitro TBK1 degradation assay, Panc02.13 cells (compounds 3-33), immunoblot
Assay type: cell-based
Details: TBK1 degradation, Panc02.13 cells, 16 h, mean of ≥ 2 determinations; for DC50: read-out: DC50 (concentration at which 50% degradation is observed)
Protocol: In vitro degradation assay protocol for compounds 3-33: Panc02.13 cells were purchased from ATCC and cultured in RPMI-1640 (Gibco), supplemented with 15% FBS (ATCC) and 10 Units/mL human recombinant insulin (Gibco). PROTAC treatments were carried out in 12-well plates for 16 h. TLR3 agonist Poly I:C (Invivogen; tlr1-pic) was added for the final 3 h. Cells were harvested, and lysed in RIPA buffer (50 mM Tris pH8, 150 mM NaCl, 1% Tx-100, 0.1% SDS, 0.5% Sodium Deoxycholate) supplemented with protease and phosphatase inhibitors. Lysates were clarified at 16,000 g for 10 minutes, and supernatants were separated by SDS-PAGE. Immunoblotting was performed using standard protocols. The antibodies used were TBK1 (Cell Signaling#3504), pIRF3 (abcam#ab76493), and GAPDH (Cell Signaling#5174).

Chain of TBK1 (Q9UHD2 whole entry): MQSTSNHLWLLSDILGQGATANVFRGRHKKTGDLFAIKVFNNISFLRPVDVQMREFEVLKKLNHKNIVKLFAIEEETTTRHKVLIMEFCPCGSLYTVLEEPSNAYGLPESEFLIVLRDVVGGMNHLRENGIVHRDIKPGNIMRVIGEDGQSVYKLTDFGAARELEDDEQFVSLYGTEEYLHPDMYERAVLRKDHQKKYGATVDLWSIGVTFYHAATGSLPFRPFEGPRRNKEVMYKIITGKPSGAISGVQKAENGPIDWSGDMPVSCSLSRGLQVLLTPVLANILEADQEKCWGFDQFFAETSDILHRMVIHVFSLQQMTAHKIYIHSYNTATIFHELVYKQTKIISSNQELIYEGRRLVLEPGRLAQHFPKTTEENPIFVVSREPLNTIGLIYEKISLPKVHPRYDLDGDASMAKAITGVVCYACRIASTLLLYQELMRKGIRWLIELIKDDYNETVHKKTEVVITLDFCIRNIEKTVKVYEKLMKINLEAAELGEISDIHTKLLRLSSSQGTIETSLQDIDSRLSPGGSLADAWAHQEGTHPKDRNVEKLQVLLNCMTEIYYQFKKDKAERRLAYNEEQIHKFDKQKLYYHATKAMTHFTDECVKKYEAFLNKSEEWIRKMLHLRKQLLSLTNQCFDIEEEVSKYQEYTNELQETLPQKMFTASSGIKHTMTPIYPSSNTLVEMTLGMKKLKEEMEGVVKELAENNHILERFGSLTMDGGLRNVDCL

Compound | Dmax (maximal degradation observed) [%] | DC50 [nM]
Cc1ncsc1-c1ccc(CNC(=O)[C@@H]2C[C@@H](O)CN2C(=O)[C@@H](NC(=O)CCOCCCOCCCOCCCOCCCOc2ccc(Nc3ncc(Br)c(NCCCN(C)C(=O)C4CCC4)n3)cc2)C(C)(C)C)cc1 [Compound 15] | 96 | 25
Cc1ncsc1-c1ccc(CNC(=O)[C@@H]2C[C@@H](O)CN2C(=O)[C@@H](NC(=O)COCCOCCCCOCCCCOCCOc2ccc(Nc3ncc(Br)c(NCCCN(C)C(=O)C4CCC4)n3)cc2)C(C)(C)C)cc1 [Compound 14] | 96 | 6
Cc1ncsc1-c1ccc(CNC(=O)[C@@H]2C[C@@H](O)CN2C(=O)[C@@H](NC(=O)COCCCOCCCOc2ccc(Nc3ncc(Br)c(NCCCN(C)C(=O)C4CCC4)n3)cc2)C(C)(C)C)cc1 [Compound 6] |  | > 1000
Cc1ncsc1-c1ccc(CNC(=O)[C@@H]2C[C@@H](O)CN2C(=O)[C@@H](NC(=O)COCCCOCCCCCOc2ccc(Nc3ncc(Br)c(NCCCN(C)C(=O)C4CCC4)n3)cc2)C(C)(C)C)cc1 [Compound 8] | 79 | 88
Cc1ncsc1-c1ccc(CNC(=O)[C@@H]2C[C@@H](O)CN2C(=O)[C@@H](NC(=O)COCCOCCOCCOCCOCCOCCOc2ccc(Nc3ncc(Br)c(NCCCN(C)C(=O)C4CCC4)n3)cc2)C(C)(C)C)cc1 [Compound 16] | 96 | 34
Cc1ncsc1-c1ccc(CNC(=O)[C@@H]2C[C@@H](O)CN2C(=O)[C@@H](NC(=O)CCCCCOCCOc2ccc(Nc3ncc(Br)c(NCCCN(C)C(=O)C4CCC4)n3)cc2)C(C)(C)C)cc1 [Compound 5] |  | > 1000
Cc1ncsc1-c1ccc(CNC(=O)[C@@H]2C[C@@H](O)CN2C(=O)[C@@H](NC(=O)COCCOCCCCOCCCCOCCOCCOc2ccc(Nc3ncc(Br)c(NCCCN(C)C(=O)C4CCC4)n3)cc2)C(C)(C)C)cc1 [Compound 17] | 96 | 3
Cc1ncsc1-c1ccc(CNC(=O)[C@@H]2C[C@@H](O)CN2C(=O)[C@@H](NC(=O)COCCOCCOCCCCOc2ccc(Nc3ncc(Br)c(NCCCN(C)C(=O)C4CCC4)n3)cc2)C(C)(C)C)cc1 [Compound 9] | 86 | 71
Cc1ncsc1-c1ccc(CNC(=O)[C@@H]2C[C@@H](O)CN2C(=O)[C@@H](NC(=O)COCCOCCOCCOc2ccc(Nc3ncc(Br)c(NCCCN(C)C(=O)C4CCC4)n3)cc2)C(C)(C)C)cc1 [Compound 7] |  | > 1000
Cc1ncsc1-c1ccc(CNC(=O)[C@@H]2C[C@@H](O)CN2C(=O)[C@@H](NC(=O)COCCOCCOCCOCCOc2ccc(Nc3ncc(Br)c(NCCCN(C)C(=O)C4CCC4)n3)cc2)C(C)(C)C)cc1 [Compound 10] | 92 | 103
Cc1ncsc1-c1ccc(CNC(=O)[C@@H]2C[C@@H](O)CN2C(=O)[C@@H](NC(=O)COCCOCCOCCOCCOCCOc2ccc(Nc3ncc(Br)c(NCCCN(C)C(=O)C4CCC4)n3)cc2)C(C)(C)C)cc1 [Compound 13] | 96 | 29
Cc1ncsc1-c1ccc(CNC(=O)[C@@H]2C[C@@H](O)CN2C(=O)[C@@H](NC(=O)CCCCCOCCCCOCCCCOc2ccc(Nc3ncc(Br)c(NCCCN(C)C(=O)C4CCC4)n3)cc2)C(C)(C)C)cc1 [Compound 12] | 90 | 95
